The subject of experiment [1] is acute hepatitis caused by carbon tetrachloride. Briefly: Acute hepatitis caused by carbon tetrachloride, serum liver function indicators. It is filed as in vivo. The following applies: male Wistar rats, 100 mg/kg/day TY force fed, 20% carbon tetrachloride/olive oil i.p. on fourth day. The protocol: Example 1. The effect of TY for the treatment of acute hepatitis caused by carbon tetrachloride was tested. Nine male Wistar rats (200-250 g) were randomly divided into 3 groups, 3 Wistar rats in each group, they were: 1. Healthy control group: force fed with drug solvent and intraperitoneal injection of olive oil (2.5 mg/kg) of the same volume as TY; 2. Negative control group (carbon tetrachloride and physiological saline): force fed with physiological saline and intraperitoneal injection of 20% carbon tetrachloride/olive oil of the same volume as TY; 3. Experimental group (carbon tetrachloride and 100 mg/kg/day of TY): force fed 100 mg/kg/day of TY and intraperitoneal injection of 20% carbon tetrachloride/olive oil. First, the drug solvent or TY was administered by force feeding once daily and the first force feeding was defined as the first day. One hour after force feeding on the fourth day, Group 1 was given intraperitoneal injection of olive oil (2.5 mg/kg), Groups 2-3 were given intraperitoneal injection of 20% carbon tetrachloride/olive oil (2.5 mg/kg), fasted 12 hours after injection, all Wistar rats were sacrificed 12 hours after fasting. Prior to being sacrificed, blood was collected from the heart and serum was separated for analysis of the biochemical function of the liver.

The test system of experiment [2] is hepatocellular injury and necrosis caused by carbon tetrachloride. In words: Hepatocellular injury and necrosis caused by carbon tetrachloride, liver H&E staining. It is filed as in vivo. The following applies: male Wistar rats, 100 mg/kg/day TY force fed, 20% carbon tetrachloride/olive oil i.p., FIG. 2. The protocol:
Example 2. Hepatocellular injury and necrosis caused by carbon tetrachloride were treated by TY. Nine male Wistar rats (200-250 g) were randomly divided into 3 groups, 3 Wistar rats in each group, they were: 1. Healthy control group: force fed with drug solvent of the same volume as TY and intraperitoneal injection of olive oil (2.5 mg/kg); 2. Negative control group (carbon tetrachloride and physiological saline): force fed with physiological saline and intraperitoneal injection of 20% carbon tetrachloride/olive oil of the same volume as TY; 3. Experimental group (carbon tetrachloride and 100 mg/kg/day of TY): force fed 100 mg/kg/day of TY and intraperitoneal injection of 20% carbon tetrachloride/olive oil. First, the physiological saline or TY was administered by force feeding once daily, and the first force feeding was defined as the first day. One hour after the force feeding on the fourth day, Group 1 was given intraperitoneal injection of olive oil (2.5 mg/kg), Groups 2-3 were given intraperitoneal injection of 20% carbon tetrachloride/olive oil (2.5 mg/kg), respectively. The rats were fasted 12 hours after injection, all Wistar rats were sacrificed 12 hours after fasting. After the rats were sacrificed, livers were collected and soaked in formalin, and stained with H&E staining, then observed and images were taken with a microscope.

Experiment [3] has as its system hepatocellular injury and abnormalities caused by alcohol (ethanol). In words: Hepatocellular injury and abnormalities caused by alcohol (ethanol), liver H&E staining. The following applies: male Wistar rats, 100 mg/kg/day TY force fed, 50% ethanol, FIG. 4. It is filed as in vivo. On the procedure:
Example 4. Hepatocellular injury and abnormalities caused by alcohol (ethanol) were treated by TY. Nine male Wistar rats (200-250 g) were randomly divided into 3 groups, 3 Wistar rats in each group, they were: 1. Healthy control group: force fed with drug solvent of the same volume as TY and force fed with physiological saline (2.5 mg/kg); 2. Negative control group (ethanol and physiological saline): force fed with physiological saline of the same volume as TY and force fed with 50% ethanol; 3. Experimental group (Ethanol and 100 mg/kg/day of TY): force fed 100 mg/kg/day of TY and force fed with 50% ethanol. First, food solvent or TY was administered by force feeding once daily, and the first force feeding was defined as the first day. One hour after force feeding on the fourth day, Group 1 was given physiological saline (2.5 mg/kg), Groups 2-3 were given 50% ethanol injection (2.5 mg/kg), respectively. The rats were force fed with ethanol again 12 hours after the first force feeding, and fasted 12 hours after the second force feeding. After being fasted for 12 hours, all Wistar rats were sacrificed. After the rats were sacrificed, livers were collected and soaked in formalin, and stained with H&E staining, then observed and images taken with a microscope.

In experiment [4] the test system is acute hepatitis caused by alcohol (ethanol). Briefly: Acute hepatitis caused by alcohol (ethanol), serum liver function indicators. The experiment is classed as in vivo. The following applies: male Wistar rats, 100 mg/kg/day TY force fed, 50% ethanol. The protocol:
Example 3. The effect of TY on the treatment of acute hepatitis caused by alcohol (ethanol). Nine male Wistar rats (200-250 g) were randomly divided into 3 groups, 3 Wistar rats in each group, they were: 1. Healthy control group: force fed with physiological saline (2.5 mg/kg) of the same volume as TY; 2. Negative control group (ethanol and physiological saline): force fed with physiological saline of the same volume as TY and force fed with 50% ethanol; 3. Experimental group (ethanol and 100 mg/kg/day of TY): force fed 100 mg/kg/day of TY and force fed with 50% ethanol. First, the drug solvent or TY was administered by force feeding once daily, and the first force feeding was defined as the first day. One hour after force feeding on the fourth day, Group 1 was given physiological saline (2.5 mg/kg), Groups 2-3 were given […] 50% ethanol (2.5 mg/kg), respectively. The rats were force fed with ethanol again 12 hours after the first force feeding, and fasted 12 hours after the second force feeding. After being fasted for 12 hours, all Wistar rats were sacrificed. Prior to being sacrificed, blood was collected from the heart and serum was separated for analysis of the biochemical function of the liver.

Experiment [5] has as its system fatty acid liver disease induced by high fat feed. In words: Serum triglyceride level of mice with fatty acid liver disease induced by high fat feed. It is filed as in vivo, C57BL/6 (B6) mice. The following applies: male B6 mice, 100 mg/kg/day TY force fed, high fat feed (60% fat calorie) 18 weeks, FIG. 6. From the text: Example 6. TY decreased serum triglyceride level of the mice with fatty acid liver disease induced by high fat feed. 15 male, 8-10 weeks old of C57BL/6 (B6) mice (20-22 g) were randomly divided into 3 groups, 4-5 B6 mice in each group, and they were: 1. Healthy control group: fed with normal feed (the percentage of fat calories 5-6%); 2. Negative control group: fed with high fat feed (the percentage of fat calorie 60%) and force fed with physiological saline (high fat feed and physiological saline); 3. Experimental group: animals were given the same high fat feed as the Negative control group and force fed with 100 mg/kg/day of TY (high fat feed and TY). 1 week before liver injury was induced by the high fat feed, the experimental samples began to be given daily, respectively, drug solvent of the same volume as TY to Groups 1 and 2, and 100 mg/kg of TY daily to Group 3. after 1 week, Groups 2 and 3 began to be given high fat feed, and continuously to be force fed with the drug solvent of the same volume as TY and 100 mg/kg/day of TY for 18 weeks. The mice began to fast on the 18th week, and 12 hours after fasting, all B6 mice were sacrificed. Prior to being sacrificed, blood was collected from the heart and serum was separated for analysis of the serum triglyceride level.

For experiment [6], the system named is fatty acid liver disease caused by high fat feed. Briefly: Chronic hepatitis of fatty acid liver disease caused by high fat feed, serum liver function indicators. The experiment is classed as in vivo, C57BL/6 (B6) mice. To be noted: male B6 mice, 100 mg/kg/day TY force fed, high fat feed (60% fat calorie) 18 weeks. The protocol:
Example 5. Chronic hepatitis of fatty acid liver disease caused by high fat feed was treated by TY. 15 male, 8-10 weeks old of C57BL/6 (B6) mice (20-22 g) were randomly divided into 3 groups, 4-5 B6 mice in each group, they were: 1. Healthy control group: fed with normal feed (the percentage of fat calories 5-6%); 2. Negative control group: fed with high fat feed (the percentage of fat calorie 60%) and physiological saline; 3. Experimental group: animals were given the same high fat feed as the Negative control group and force fed with 100 mg/kg/day of TY. 1 week before liver injury was induced by high fat feed, the experimental samples began to be given daily, respectively, drug solvent of the same volume as TY to Groups 1 and 2, and 100 mg/kg/daily of TY to Group 3. After 1 week, Groups 2 and 3 began to be given high fat feed, and continuously to be force fed with the drug solvent of the volume same as TY and 100 mg/kg/day of TY for 18 weeks. The mice began to fast on the 18th week, and 12 hours after fasting, all B6 mice were sacrificed. Prior to being sacrificed, blood was collected from the heart and serum was separated for analysis of the biochemical function of the liver.

The subject of experiment [7] is fatty acid disease induced by high fat feed. Briefly: Hepatocellular injury and abnormalities of fatty acid disease induced by high fat feed, liver H&E staining. The experiment is classed as in vivo, C57BL/6 (B6) mice. The following applies: male B6 mice, 100 mg/kg/day TY force fed, high fat feed (60% fat calorie) 18 weeks, FIG. 7. The protocol:
Example 7. Hepatocellular injury and abnormalities of fatty acid disease induced by high fat feed were treated with TY. 15 male, 8-10 weeks old of C57BL/6 (B6) mice (20-22 g) were randomly divided into 3 groups, and 4-5 B6 mice in each group, they were: 1. Healthy control group: fed with normal feed (the percentage of fat calories 5-6%); 2. Negative control group: fed with high fat feed (the percentage of fat calorie 60%) and force fed with physiological saline; 3. Experimental group: animals were given the same high fat feed as the Negative control group and force fed with 100 mg/kg/day of TY (high fat feed and TY). 1 week before liver injury was induced by the high fat feed, the experimental samples began to be given daily, respectively, the drug solvent of the same volume as TY to Groups 1 and 2, and 100 mg/kg of TY daily to Group 3. After 1 week, Groups 2 and 3 began to be given high fat feed, and continuously to be force fed with the drug solvent of the same volume as TY and 100 mg/kg/day of TY for 18 weeks. The mice began to fast on the 18th week, and 12 hours after fasting, all B6 mice were sacrificed. After the mice were sacrificed, livers were collected and soaked in formalin, stained with H&E staining, and then observed and images taken with a microscope.

With `C#CCCCCCCCCCCC[C@@H](O)C[C@@H](O)CO` [TY, (2R,4R)-1,2,4-trihydroxy heptadec-16-yne], the “liver function indicator GOT/AST increased by carbon tetrachloride” value in experiment [1] (FIG. 1A) was “significantly decreased”. For the same compound, the “liver function indicator GPI/ALT increased by carbon tetrachloride” value in experiment [1] (FIG. 1B) was “significantly decreased”. The “hepatocellular necrosis near the central vein caused by carbon tetrachloride (H&E staining)” value in experiment [2] is listed as “capable of effectively reducing hepatocellular necrosis near the central vein”. Also, the “liver injury and tissue abnormalities caused by ethanol (H&E staining)” value in experiment [3] was “capable of reducing the liver injury and tissue abnormalities”. The “liver function indicator GOT/AST increased by ethanol” value in experiment [4] (FIG. 3A) is given as “significantly decreased”. Besides, the “liver function indicator GPI/ALT increased by ethanol” value in experiment [4] (FIG. 3B) is “significantly decreased”. In experiment [5], the “serum triglyceride level increased by the high-fat diet” value is reported as “significantly decreased”. For the same compound, in experiment [6] (FIG. 5A), the “liver function indicator GOT/AST increased by the high-fat feed” value is “significantly decreased”. For the same compound, the “liver function indicator GPT/ALT increased by the high-fat feed” value in experiment [6] (FIG. 5B) is reported as “significantly decreased”. In addition, the “liver injury and tissue abnormalities caused by the high fat feed (H&E staining)” value in experiment [7] is “capable of reducing the liver injury and tissue abnormalities”.

The values above are taken from patent publication US11413254B2, “Application for (2R, 4R)-1,2,4-trihydroxyheptadec-16-yne in preparation of pharmaceutical composition for preventing or treating hepatic injury” (KAOHSIUNG MEDICAL UNIVERSITY, priority 2016, dated 2022).
